{"source": "patent US20250000948A1", "about": "“SOLID COMPOSITIONS COMPRISING A PEPTIDE OR A PROTEIN AND AN ACYLATED AMINO ACID” (ADOCIA, priority 2021, published 2025)", "key": {"[1]": {"experiment": "Solubilization kinetics of compacts, USP <711> paddle apparatus (Example B1)", "type": "physicochemical", "details": "200 mM phosphate buffer pH 6.8, 37° C., 75 rpm", "protocol": "To evaluate solubilization kinetics of NaPheC6 and NaPheC8 in similar conditions, compacts are prepared in the following manner:\nIn a manual tablet press (LFA TDP 0 Desktop tablet press) equipped with cylindrical 8 mm diameter punches, 200 +10 mg of permeation enhancer is filled into the die cavity. Compression into cylindrical compacts of 4±0.5 mm height yields compacts with apparent volumetric mass of 1±0.2 g/mL.\nThese compacts are put into a capsule sinker, then dissolved using an USP <711>-compliant apparatus (type 2-Paddle apparatus). Dissolution is done into 700 mL of 200 mM phosphate buffer, pH 6.8. Temperature is set at 37° C. and agitation at 75 rpm.\nSampling of the dissolution medium followed by HPLC dosage yields the following dissolution profiles for the compounds NaPheC6 and NaPheC8, respectively: […]"}, "Caco-2 monolayers": {"test_system": "Caco-2 monolayers", "type": "in vitro ADME", "protocol": "An in vitro permeability assay was conducted in order to evaluate the impact of NaPheC8 on the passage of peptides through a monolayer of intestinal epithelial cells. Caco-2 cells were seeded on a polycarbonate membrane that separate basal and apical compartments of a Transwell system and cultured for 21-days.\nInsulin lispro and semaglutide formulations (100 μM) were added into the apical compartment of the culture system in presence or absence of different concentrations of NaPheC8.\nIn vitro absorption of peptides was estimated by quantifying insulin lispro or semaglutide in the basal compartment 1 hour after the addition of formulations (quantification by ELISA).\nPeptide permeability in the presence of NaPheC8, expressed as a fold-increase compared to the treatment with the peptide alone, is reported in the table below: […]"}}, "data": [{"smiles": "CCCCCC(=O)N[C@@H](Cc1ccccc1)C(=O)O", "note": "[NaPheC6, N-hexanoyl-Phenylalanine]", "values": [{"measurement": "dissolved (%)", "setting": "[1]; 20 seconds", "result": 47, "unit": "%"}, {"measurement": "dissolved (%)", "setting": "[1]; 40 seconds", "result": 100, "unit": "%"}, {"measurement": "dissolved (%)", "setting": "[1]; 60 seconds", "result": 100, "unit": "%"}, {"measurement": "dissolved (%)", "setting": "[1]; 80 seconds", "result": 100, "unit": "%"}, {"measurement": "dissolved (%)", "setting": "[1]; 100 seconds", "result": 100, "unit": "%"}]}, {"smiles": "CCCCCCCC(=O)N[C@@H](Cc1ccccc1)C(=O)[O-].[Na+]", "note": "[NaPheC8, sodium salt of N-octanoyl phenylalanine]", "values": [{"measurement": "effect on passage of peptides through Caco-2 monolayers (in words)", "setting": "Caco-2 monolayers", "result": "favors the passage of these peptides through Caco-2 monolayers, in a dose-dependant manner"}, {"measurement": "dissolved (%)", "setting": "[1]; 20 seconds", "result": 15, "unit": "%"}, {"measurement": "dissolved (%)", "setting": "[1]; 40 seconds", "result": 37, "unit": "%"}, {"measurement": "dissolved (%)", "setting": "[1]; 60 seconds", "result": 57, "unit": "%"}, {"measurement": "dissolved (%)", "setting": "[1]; 80 seconds", "result": 89, "unit": "%"}, {"measurement": "dissolved (%)", "setting": "[1]; 100 seconds", "result": 99, "unit": "%"}]}]}
